Series [1] has as its target CYP3A4 (Homo sapiens (Human), UniProt P08684). Put plainly: Mechanism-based inhibition of CYP3A4 assay (MBI 3A4). Format: in vitro ADME. As to conditions: human, human liver microsomes, probe midazolam 15 μM (hydroxy-midazolam formation), midazolam substrate, hydroxy-midazolam formation after 30 min preincubation relative to 0 min, read-out: MBI inhibition % ctrl. [%] with MDZ. The method in brief: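 Human liver microsomes (0.2 mg/mL) were preincubated with compound at 0, 5 or 25 μM plus 1 mM NADPH for 0, 10 or 30 min, then diluted 1:10 and incubated 10 min with 15 μM midazolam. Hydroxy-midazolam was measured by LC/MS-MS; readout is formation after 30 min relative to 0 min preincubation (%).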
For orientation: Liver microsomes are a subcellular fraction often used to study metabolism.

The target in series [2] is SOS1 and KRAS G12D (Homo sapiens (Human), UniProt Q07889). Put plainly: KRAS::SOS1 AlphaScreen binding assay (KRAS G12D). As to conditions: average of at least two measurements. On the technique in general: In Alpha technology, singlet oxygen from a donor bead excites a nearby acceptor bead.
SOS1 and KRAS G12D, sequence (Q07889 564-1049, stated change not applied): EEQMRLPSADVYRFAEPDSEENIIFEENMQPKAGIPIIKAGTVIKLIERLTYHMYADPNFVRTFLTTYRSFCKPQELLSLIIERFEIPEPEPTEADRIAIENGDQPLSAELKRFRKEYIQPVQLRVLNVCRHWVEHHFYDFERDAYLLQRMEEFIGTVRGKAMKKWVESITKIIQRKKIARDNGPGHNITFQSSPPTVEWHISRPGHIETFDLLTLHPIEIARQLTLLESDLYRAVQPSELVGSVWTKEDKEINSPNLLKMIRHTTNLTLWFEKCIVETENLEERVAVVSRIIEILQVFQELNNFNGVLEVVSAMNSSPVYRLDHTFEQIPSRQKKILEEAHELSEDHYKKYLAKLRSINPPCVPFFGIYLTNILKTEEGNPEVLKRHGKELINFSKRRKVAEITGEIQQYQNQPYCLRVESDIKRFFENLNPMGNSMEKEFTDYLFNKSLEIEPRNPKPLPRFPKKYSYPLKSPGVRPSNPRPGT
The target in series [3] is P450 3A4 (Homo sapiens (Human), UniProt P08684). Put plainly: Cytochrome P450 isoenzyme inhibition assay (P450 3A4, midazolam). Format: in vitro ADME. The conditions noted are these: human liver microsomes, Midazolam as substrate; read-out: CYP3A4 inhibition IC50. Summed up:
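Midazolam (5 μM) hydroxylation by human liver microsomes (0.1 mg/ml) in 0.1 M TRIS with 5 mM MgCl2, started with 1 mM NADPH. Five compound concentrations in duplicate, e.g. top 50 μM with 1:4 dilutions. Metabolite quantified by LC-MS/MS against internal standard; IC50 from inhibition relative to no-compound control.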

Series [4] deals with human hepatocytes. Put plainly: Metabolic stability in human hepatocytes. As to conditions: 1 μM test compound, 50% human serum, percentage of liver blood flow.
For series [5], the target named is SOS1 and KRAS G12C (Homo sapiens (Human), UniProt Q07889). Put plainly: KRAS::SOS1 AlphaScreen binding assay (KRAS G12C). The conditions noted are these: average of at least two measurements.
SOS1 and KRAS G12C, sequence (Q07889 564-1049, stated change not applied): as above
Series [6] deals with ERK phosphorylation in NCI-H358 SOS2 KO cells (KRAS G12C). Put plainly: Erk phosphorylation assay. The conditions noted are these: EGF stimulated, average of at least two measurements, read-out: pERK IC50. Format: cell-based, human. The method in brief: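 NCI-H358 SOS2 KO cells (KRAS G12C) in DMEM/2% FBS were pretreated 50 min with compound, then stimulated with EGF (approx. 8 ng/mL) for 10-15 min. pERK1/2 (Thr202/Tyr204) measured in lysates by AlphaLISA SureFire; IC50 from variable-slope fit, averaged over at least two measurements.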

The mark [7] stands for this setting: Homo sapiens, NCI-H358, NCI-H358 SOS2 KO cells.

Molecules are shown by their SMILES. Read-outs that look alike come from different tables or passages of the source. Some results are limits rather than exact numbers.

By inhibition is commonly meant the relative decrease from the control value, in per cent. For orientation: IC50 means the concentration at which inhibition is half-maximal.

CYP3A4, sequence (P08684 whole entry): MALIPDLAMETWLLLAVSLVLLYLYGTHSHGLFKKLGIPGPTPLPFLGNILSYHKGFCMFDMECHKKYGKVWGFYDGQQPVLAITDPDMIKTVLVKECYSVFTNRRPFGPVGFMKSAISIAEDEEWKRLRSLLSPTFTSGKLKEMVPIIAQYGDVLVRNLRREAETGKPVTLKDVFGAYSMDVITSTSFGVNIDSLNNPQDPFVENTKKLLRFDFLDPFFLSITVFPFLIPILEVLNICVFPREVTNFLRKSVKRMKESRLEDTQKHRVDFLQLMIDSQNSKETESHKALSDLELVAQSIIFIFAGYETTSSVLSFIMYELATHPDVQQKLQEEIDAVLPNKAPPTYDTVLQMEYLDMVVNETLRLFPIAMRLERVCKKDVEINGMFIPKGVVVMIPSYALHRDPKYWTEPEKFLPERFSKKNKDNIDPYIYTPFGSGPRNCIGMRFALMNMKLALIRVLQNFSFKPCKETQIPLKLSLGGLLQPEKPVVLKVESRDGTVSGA
P450 3A4, sequence (P08684 whole entry): as above

As for `C[C@@H](NC(=O)c1cc(N2CCC(N3CC4CC4(CO)C3)CC2)c2ncnn2c1)c1cccc(C(F)F)c1F` (single isomer, unassigned) [Example cis-E21a], the inhibition at 30 min in series [1] was 102%. Besides, the IC50 in series [2] is 61 nM; in series [3], greater than 50 µM; in series [5], 81 nM; in series [6] (setting [7]), 216 nM. Also, in series [4], the “Hepatic clearance - QH[%] in human hepatocytes” value (from here on “Hepatic clearance - QH[%]”) is reported as 25%.
`C[C@@H](NC(=O)c1cc(N2CCC(N3CCC(O)C(C)(O)C3)CC2)c2ncnn2c1)c1cccc(C(F)(F)F)c1F` (stereo partly drawn) [Example cis-E29]: the inhibition at 30 min in series [1] was 95%. The IC50 is 46 nM in series [2], greater than 50 µM in series [3], 56 nM in series [5] and 261 nM in series [6] (setting [7]). In series [4], the “Hepatic clearance - QH[%]” value came out at 24%.
With `C[C@@H](NC(=O)c1cc(N2CCC(N3CC[C@](C)(O)C3)CC2)c2ncnn2c1)c1cccc(C(F)F)c1F` [Example E4], the inhibition at 30 min in series [1] turned out to be 99%. Further, the IC50 was 70 nM in series [2], greater than 50 µM in series [3], 82 nM in series [5] and 336 nM in series [6] (setting [7]). Further, the “Hepatic clearance - QH[%]” value in series [4] is given as 20%.
As to `C[C@@H](NC(=O)c1cc(N2CCC(NC3CCCC3(C)O)CC2)c2ncnn2c1)c1cccc(C(F)(F)F)c1F` (single isomer, unassigned) [Example trans-E53b], the inhibition at 30 min in series [1] is 91%. Moreover, the IC50 in series [2] is 35 nM; in series [3] it was greater than 50 µM; in series [5] it was 33 nM; in series [6] (NCI-H358 SOS2 KO cells), 287 nM. Besides, in series [4], the “Hepatic clearance - QH[%]” value stood at 28%.
Take `C[C@@H](NC(=O)c1cc(N2CCC(N3CCCC(C)(O)C3)CC2)c2ncnn2c1)c1cccc(C(F)(F)F)c1F` (single isomer, unassigned) [Example E47a]: the inhibition at 30 min in series [1] is 97%. In addition, the IC50 in series [2] was 99 nM; in series [3], greater than 50 µM; in series [5] it was 96 nM; in series [6] (setting [7]), 162 nM. Moreover, in series [4], the “Hepatic clearance - QH[%]” value is on record as 30%.
As for `C[C@@H](NC(=O)c1cc(N2CCC(N3CCC4(CC4)C3)CC2)c2ncnn2c1)c1cccc(C(F)F)c1F` [Example E8], the inhibition at 30 min in series [1] was 97%. For the same molecule, the IC50 in series [2] was 69 nM; in series [3] it was greater than 50 µM; in series [5] it was 70 nM; in series [6] (setting [7]), 188 nM. Besides, the “Hepatic clearance - QH[%]” value in series [4] was 18%.
Take `C[C@@H](NC(=O)c1cc(N2CCC(N3CC[C@@H](CO)C3)CC2)c2ncnn2c1)c1cccc(C(F)(F)F)c1F` [Example E27]: in series [1], the inhibition at 30 min is 90%. Besides, the IC50 in series [2] was 73 nM; in series [3] it was greater than 50 µM; in series [5], 77 nM; in series [6] (setting [7]), 73 nM. In addition, the “Hepatic clearance - QH[%]” value in series [4] is on record as 9%.

The values above are taken from patent publication US20250313560A1, “Novel bicyclic benzylamido pyridine derivatives as SOS1 inhibitors” (Boehringer Ingelheim International GmbH, priority 2024, published 2025).
